Results on 25 compounds are retold here after US5084455A, “Novel indole carboxamides” (Roussel Uclaf, priority 1985, dated 1992).

Data set [1] deals with disturbances of the cardiac rhythm. Nature of the data set: Anti-arrhythmic action in the rat (aconitine perfusion). In kind it is in vivo, male rats. On the procedure:
Male rats weighing 300-350 g were anesthetized intra-peritoneally with 1.20 g/kg of urethane, then tracheotomized and submitted to artificial respiration (40-50 breaths of 3 ml/minute). Needles were implanted subcutaneously so as to record the electro-cardiogram of the rats on the DII derivation signal. The products under test were administered intravenously or orally.
Five minutes after the administration of the product intravenously or 1 hour after administration orally, the jugular vein of the rats was perfused with 10 μg/minute from 0.2 ml of a solution of aconitine, and the time of appearance of disturbances of the cardiac rhythm was noted, (10 μg of aconitine corresponding to a perfusion of 0.2 ml of solution). The results are expressed as a percentage of the extension of the time of appearance of the disturbances of the cardiac rhythm as compared with controls, and as a function of the dose of the product under test.

The subject of the next data set is Rat caudal arteries. The data set can be described thus: Test of calcium-antagonistic activity in vitro (K+ depolarized caudal arteries). In kind it is cell-based. The following applies: 100 mM K+, 37° C., read-out: IC50, inhibition of the contraction due to K+ ions. On the procedure:
Calcium chloride was added in a volume of 250 μl to obtain a series of increasing concentrations of Ca^2+ ions ranging from 0.1 to 3.0 mM. The contractions of the arteries were recorded and a control series were thus established. The operation was repeated with the series of CA^2+ ions every 15 minutes and the preparation was washed four times after each series. When a stable response was obtained, the operation with the series of CA^2+ ions was performed in the presence of different concentrations of the test product, until a stable response was obtained.
The contractions of the arteries depend on the entry of Ca^2+ ions into the cells of the smooth muscles, and were caused by the depolarization of the smooth muscle by the K^+ ions and by the action of the noradrenaline released at presynaptic level. By starting the operation again with arteries denervated by the action of 6-OH-dopamine, the specific action due to noradrenaline was eliminated.

The subject of another data set is mice. The data set can be described thus: Study of the acute toxicity. In kind it is in vivo. To be noted: oral. On the procedure: The lethal doses LD50 of the different compounds tested were evaluated after administration orally to mice. The maximum dose not causing any mortality in 8 days was called the LD0 and the following results were obtained.
Setting [2] is: iv, read-out: Percentage extension of the time of appearance of disturbances of the cardiac rhythm.
Setting [3] is: read-out: Percentage of prolongation in the time.
Setting [4] is: po, read-out: Percentage extension of the time of appearance of disturbances of the cardiac rhythm.
Setting [5] is: iv, read-out: Percentage of prolongation in the time.

Where a name gives a salt, the structure may show the parent alone. Read-outs that look alike come from different tables or passages of the source.

In the case of `CC(C)(C)NCCCOc1ccccc1NC(=O)c1cccc2[nH]ccc12` [Example 3, N-[2-[3-[(1,1-dimethylethyl)amino]propoxy]phenyl]-1H-indol-4-carboxamide hydrochloride], in data set [1] (setting [2]), the change in vivo at 2.5 mg/kg stood at 68%.

Take `CC(C)(C)NCC(O)COc1ccc(Cl)cc1C(=O)Nc1cccc2[nH]ccc12` (stereo not drawn) [Example 54, 5-Chloro-2-[3-(1,1-dimethylethyl)-amino]-2-hydroxy-propoxy-N-(1H-indol-4-yl)-benzamide]: the IC50 in the data set on Rat caudal arteries turned out to be 5400 nM.

Take `CCCNCCCOc1ccccc1C(=O)Nc1cccc2[nH]ccc12` [Example 38, N-(1H-Indol-4-yl)-2-[3-(propylamino)propoxy]-benzamide]: in data set [1] (setting [3]), the change in vivo at 2.5 mg/kg was determined as 42%, the change in vivo at 5 mg/kg was 76% and the change in vivo at 10 mg/kg was found to be 173%.

For `O=C(Nc1ccccc1OCCCNC1CCCC1)c1cccc2[nH]ccc12` [Example 42, N-[2-[3-(Cyclopentylamino)propoxy]phenyl]-1H-indol-4-carboxamide], in data set [1] (setting [3]), the change in vivo at 1 mg/kg worked out at 29% and the change in vivo at 2.5 mg/kg was found to be 86%.

In the case of `CC(C)(C)NCCCOc1ccccc1C(=O)Nc1cccc2[nH]ccc12` [Example 6, 2-[3-[(1,1-dimethylethyl)amino]propoxy]-N-(1H-indol-4-yl)benzamide], in data set [1] (setting [2]), the change in vivo at 1 mg/kg was 23% and the change in vivo at 2.5 mg/kg came to 41%. Further, the change in vivo at 2.5 mg/kg in data set [1] (setting [4]) was determined as 29%. For the same compound, in the data set with mice, the “LD0 (maximum dose not causing any mortality in 8 days)” value stood at 200 mg/kg.

For `O=C(Nc1ccccc1OCCCNC1CCCCC1)c1cccc2[nH]ccc12` [Example 43, N-[2-[3-(Cyclohexylamino)propoxy]phenyl]-1H-indole-4-carboxamide], in data set [1] (setting [3]), the change in vivo at 1 mg/kg is 49% and the change in vivo at 2.5 mg/kg turned out to be 83%.

For the compound `C#CC(C)(C)NCC(O)COc1ccccc1C(=O)Nc1cccc2[nH]ccc12` (stereo not drawn) [Example 35, 2-[3-[1,1-Dimethyl-2-propynylamino]-2-hydroxypropoxy]-N-(1H-indol-4-yl) benzamide], in the data set on Rat caudal arteries, the IC50 was 9000 nM.

As to `Cn1ccc2c(NC(=O)c3ccccc3OCC(O)CN3CCN(C(c4ccccc4)c4ccccc4)CC3)cccc21` (stereo not drawn) [Example 49], in the data set on Rat caudal arteries, the 50% inhibitory concentration (IC50) worked out at 3000 nM.

With `CCC(C)(C)NCCCOc1ccccc1NC(=O)c1cccc2[nH]ccc12` [Example 44, N-[2-[3-[1,1-Dimethylpropylamino]propoxy]phenyl]-1H-indole-4-carboxamide], in data set [1] (setting [3]), the change in vivo at 1 mg/kg worked out at 50%, the change in vivo at 2.5 mg/kg came out at 90% and the change in vivo at 5 mg/kg is 167%. Besides, the “LD0 (maximum dose not causing any mortality in 8 days)” value with mice was found to be 200 mg/kg.

On to `O=C(Nc1cccc2[nH]ccc12)c1ccccc1OCC(O)CN1CCN(C(c2ccccc2)c2ccccc2)CC1` (stereo not drawn) [Example 46, 2-[2-Hydroxy-3-[4-(diphenylmethyl)-1-piperazinyl]propoxy]-N-(1H-indol-4-yl)benzamide], for which, in data set [1] (setting [3]), the change in vivo at 2.5 mg/kg turned out to be 67%, the change in vivo at 5 mg/kg is 127% and the change in vivo at 10 mg/kg was 203%. Besides, the IC50 in the data set on Rat caudal arteries amounted to 250 nM. The “LD0 (maximum dose not causing any mortality in 8 days)” value with mice is recorded as 400 mg/kg.

For the compound `COc1ccc(CCNCCCOc2ccccc2NC(=O)c2cccc3[nH]ccc23)cc1OC` [Example 45, N-[2-[3-[[2-(3,4-dimethoxyphenyl)ethyl]-amino]propoxy]phenyl]-1H-indole-4-carboxamide], in data set [1] (setting [3]), the change in vivo at 2.5 mg/kg stood at 60%, the change in vivo at 5 mg/kg was 142% and the change in vivo at 10 mg/kg was 193%.

Turning to `CC(C)(C)NCCOc1ccccc1C(=O)Nc1cccc2[nH]ccc12.Cl` [Example 5, 2-[2-[(1,1-dimethylethyl)amino]ethoxy]-N-(1H-indol-4-yl)-benzamide hydrochloride], in data set [1] (setting [2]), the change in vivo at 0.25 mg/kg was 9%, the change in vivo at 0.5 mg/kg is 36%, the change in vivo at 1 mg/kg stood at 33% and the change in vivo at 2.5 mg/kg is 61%. Besides, in data set [1] (setting [4]), the change in vivo at 2.5 mg/kg came out at 22%, the change in vivo at 5 mg/kg amounted to 32% and the change in vivo at 10 mg/kg is 59%. Further, the “LD0 (maximum dose not causing any mortality in 8 days)” value in the data set on mice was 60 mg/kg.

For `CC(C)N(CCOc1ccccc1C(=O)Nc1cccc2[nH]ccc12)C(C)C` [Example 12, 2-[2-[bis(1-methylethyl)-amino]ethoxy-]N-(1H-indol-4-yl) benzamide], the “LD0 (maximum dose not causing any mortality in 8 days)” value in the data set with mice is on record as greater than 400 mg/kg.

With `CC(C)(CO)NCC(O)COc1ccccc1C(=O)Nc1cccc2[nH]ccc12` (stereo not drawn) [Example 37, 2-[3-[1,1-Dimethyl-2-hydroxyethylamino]-2-hydroxypropoxy]-N-(1H-indol-4-yl)benzamide], in data set [1] (setting [3]), the change in vivo at 1 mg/kg stood at 47% and the change in vivo at 5 mg/kg is 116%.

Regarding `CC(C)(C)NCC(O)COc1ccc([N+](=O)[O-])cc1C(=O)Nc1cccc2[nH]ccc12` (stereo not drawn) [Example 50], in data set [1] (setting [5]), the change in vivo at 0.5 mg/kg turned out to be 17%, the change in vivo at 1 mg/kg was 39% and the change in vivo at 2.5 mg/kg is 77%. For the same compound, in the data set on mice, the “LD0 (maximum dose not causing any mortality in 8 days)” value was 200 mg/kg.

On to `COc1cc(CCN2CCN(CCCCOc3ccccc3C(=O)Nc3cccc4[nH]ccc34)CC2)cc(OC)c1OC` [Example 47, N-(1H-Indol-4-yl)-2-[4-[4-[2-(3,4,5-trimethoxyphenyl)ethyl]-1-piperazinyl]butoxy]benzamide], for which, in data set [1] (setting [3]), the change in vivo at 5 mg/kg worked out at 44% and the change in vivo at 10 mg/kg amounted to 67%. For the same compound, the IC50 in the data set on Rat caudal arteries amounted to 2800 nM.

In the case of `CC(C)NCCCOc1ccccc1NC(=O)c1cccc2[nH]ccc12` [Example 41, N-[2-[3-[Isopropylamino]propoxy]phenyl]-1H-indole-4-carboxamide], in data set [1] (setting [3]), the change in vivo at 1 mg/kg came out at 34%, the change in vivo at 2.5 mg/kg worked out at 57% and the change in vivo at 5 mg/kg was determined as 156%.

Consider `O=C(Nc1cccc2[nH]ccc12)c1ccccc1OCCCNC1CCCCC1` [Example 31, 2-[3-(Cyclohexylamino)propoxy]-N-(1-H-indol-4-yl)benzamide], for which, in data set [1] (setting [2]), the change in vivo at 1 mg/kg is 24%, the change in vivo at 2.5 mg/kg is 34% and the change in vivo at 5 mg/kg is 83%. For the same compound, the IC50 in the data set on Rat caudal arteries is 1800 nM.

Take `COc1ccc(C(=O)Nc2cccc3[nH]ccc23)c(OCC(O)CNC(C)(C)C)c1` (stereo not drawn) [Example 53, 2-[3-(1,1-dimethylethyl)-amine]-2-hydroxy-propoxy-N-(1H-indol-4-yl)-4-methoxy-benzamide]: in data set [1] (setting [5]), the change in vivo at 1 mg/kg was 10% and the change in vivo at 2.5 mg/kg was found to be 38%. The IC50 in the data set with Rat caudal arteries stood at 8000 nM.

For the compound `CC(C)(C)CC(C)(C)NCC(O)COc1ccccc1C(=O)Nc1cccc2[nH]ccc12` (stereo not drawn) [Example 36, 2-[2-Hydroxy-3-[1,1,3,3-tetramethylbutyl-amino]propoxy]-N-(1H-indol-4-yl)benzamide], in data set [1] (setting [3]), the change in vivo at 1 mg/kg was found to be 25% and the change in vivo at 2.5 mg/kg worked out at 69%. Moreover, the IC50 in the data set with Rat caudal arteries was 440 nM.

Turning to `CC(C)(C)NCCOc1ccccc1NC(=O)c1cccc2[nH]ccc12` [Example 2, N-[2-[2-[(1,1-dimethylethyl)amino]ethoxy]phenyl]-1H-indol-4-carboxamide], in data set [1] (setting [2]), the change in vivo at 1 mg/kg stood at 6% and the change in vivo at 2.5 mg/kg is 57%. In the data set on mice, the “LD0 (maximum dose not causing any mortality in 8 days)” value is reported as 80 mg/kg.

For `CC(C)(C)NCC(O)COc1ccccc1C(=O)Nc1cccc2[nH]ccc12` (stereo not drawn) [Example 4, 2-[3-[(1,1-dimethylethyl)amino]-2-hydroxypropoxy]-N-(1H-indol-4-yl)benzamide], in data set [1] (setting [2]), the change in vivo at 0.5 mg/kg is 17%, the change in vivo at 1 mg/kg was 38% and the change in vivo at 2.5 mg/kg is 124%. For the same compound, in data set [1] (setting [4]), the change in vivo at 5 mg/kg turned out to be 7%, the change in vivo at 10 mg/kg was 46% and the change in vivo at 25 mg/kg was found to be 81%. The “LD0 (maximum dose not causing any mortality in 8 days)” value with mice is greater than 400 mg/kg.

Turning to `CC(C)N(CC(O)COc1ccccc1C(=O)Nc1cccc2[nH]ccc12)C(C)C` (stereo not drawn) [Example 15], in data set [1] (setting [2]), the change in vivo at 2.5 mg/kg stood at 25.5% and the change in vivo at 5 mg/kg was 56%. The “LD0 (maximum dose not causing any mortality in 8 days)” value in the data set with mice is no less than 400 mg/kg.

In the case of `CC(C)(CO)NCCCOc1ccccc1C(=O)Nc1cccc2[nH]ccc12` [Example 40, 2-[3-[1,1-dimethyl-2-hydroxyethylamino]-propoxy]-N-(1H-indol-4-yl)benzamide], in data set [1] (setting [3]), the change in vivo at 1 mg/kg stood at 21% and the change in vivo at 2.5 mg/kg was found to be 50%. The IC50 with Rat caudal arteries is 8400 nM.

For the compound `CC(C)(C)NCC(O)COc1ccccc1NC(=O)c1cccc2[nH]ccc12` (stereo not drawn) [Example 1, N-[2-[3-[(1,1-dimethylethyl)amino]-2-hydroxypropoxy]-phenyl]-1H-indol-4-carboxyamide], in data set [1] (setting [2]), the change in vivo at 0.25 mg/kg came out at 31%, the change in vivo at 0.5 mg/kg was determined as 41% and the change in vivo at 1 mg/kg stood at 110%. Also, the “LD0 (maximum dose not causing any mortality in 8 days)” value in the data set with mice was determined as 80 mg/kg.

The term IC50 denotes the concentration that gives 50% inhibition.
